{"source": "patent US9221791B2", "about": "“Metalloenzyme inhibitor compounds” (Viamet Pharmaceuticals, Inc., priority 2011, dated 2015)", "key": {"[1]": {"test_system": "Septoria tritici (ATCC 26517)", "experiment": "Minimum Inhibitory Concentration (MIC) (Septoria tritici), CLSI-based microdilution", "type": "cell-based", "details": "S. tritici ATCC 26517; 22° C. for seven days; 50% reduction in growth", "summary_of_the_method": "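S. tritici (ATCC 26517) tested by CLSI-style broth microdilution for filamentous fungi in RPMI-1640/MOPS, 2-fold series 16–0.016 μg/mL (11 concentrations, 2% DMSO before inoculum), duplicate rows. Inoculum ~5×10^4 cfu/mL; plates incubated 7 days at 22 °C in the dark, static; growth scored on a rating scale.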"}, "[2]": {"molecular_target": "CYP3A4 (Homo sapiens (Human), UniProt P08684)", "sequence (P08684 whole entry)": "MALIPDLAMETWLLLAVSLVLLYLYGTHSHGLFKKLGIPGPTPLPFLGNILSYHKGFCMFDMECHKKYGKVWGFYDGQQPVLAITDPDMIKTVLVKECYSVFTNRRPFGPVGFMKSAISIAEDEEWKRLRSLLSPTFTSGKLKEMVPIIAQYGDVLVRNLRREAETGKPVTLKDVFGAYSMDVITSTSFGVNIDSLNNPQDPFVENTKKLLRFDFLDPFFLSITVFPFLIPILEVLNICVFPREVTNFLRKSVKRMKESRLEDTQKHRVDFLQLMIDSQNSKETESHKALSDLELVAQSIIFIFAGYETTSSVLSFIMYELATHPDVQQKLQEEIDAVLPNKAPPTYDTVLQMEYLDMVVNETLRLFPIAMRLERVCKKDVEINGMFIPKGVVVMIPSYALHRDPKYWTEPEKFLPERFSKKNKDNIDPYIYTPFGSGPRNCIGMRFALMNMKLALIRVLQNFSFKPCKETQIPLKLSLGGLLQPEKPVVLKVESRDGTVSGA", "experiment": "Inhibition of Liver Cytochrome P450 Enzymes (pooled human liver microsomes), CYP3A4", "type": "in vitro ADME", "method": "B. Inhibition of Liver Cytochrome P450 Enzymes\nSolutions of each test compound were separately prepared at concentrations of 20000, 6000, 2000, 600, 200, and 60 μM by serial dilution with DMSO:MeCN (50:50 v/v). The individual test compound solutions were then diluted 20-fold with DMSO:MeCN:deionized water (5:5:180 v/v/v) to concentrations of 1000, 300, 100, 30, 10, and 3 μM. Mixtures of isozyme inhibitors (sulfaphenazole, tranylcypromine, and ketoconazole as specific inhibitors of isozymes 2C9, 2C19, and 3A4, respectively) were prepared containing each inhibitor at concentrations of 6000, 2000, 600, 200, 60, 20, 6, and 2 μM by serial dilution with DMSO:CH3CN (50:50 v/v). […]\nPooled human liver microsome suspension (20 mg/mL) was diluted with phosphate buffer to obtain a 5 mg/mL suspension. […] Separate stock solutions of each substrate were prepared in DMSO:MeCN (50:50 v/v), mixed, and diluted in phosphate buffer to obtain a single solution containing each substrate at five times its experimentally determined Km concentration. […]\nSubstrate solution and microsome suspension were combined in a 1:1 volume ratio, mixed, and distributed to reaction wells of a PCR plate. […] A portion of the supernatant was analyzed by gradient reverse-phase HPLC with detection by electrospray ionization triple quadrupole mass spectrometry in the positive ion mode. […]"}, "[3]": {"test_system": "C. albicans", "experiment": "Minimum Inhibitory Concentration (MIC) (C. albicans), CLSI M27-A2", "type": "cell-based", "details": "Candida albicans; approximately 48 h at 35±1° C.; about 50% growth reduction", "method": "A. Minimum Inhibitory Concentration (MIC) (C. albicans) Compounds of the present disclosure were assessed for their ability to inhibit the growth of common strains of fungus, C. albicans using a standardized procedure (CLSI M27-A2). Stock solutions of the test compounds and standards were prepared in DMSO at 1,600 μg/mL (C. albicans). Eleven, serial, one-half dilutions of compounds were prepared in 96-well plates in RPMI+MOPS. The assay concentration ranges were 8-0.001 μg/mL (C. albicans). Cell suspensions of C. albicans were prepared and added to each well at concentrations of approximately 3.7×10^3 colony-forming-units per milliliter (cfu/mL). All testing was in duplicate. The inoculated plates were incubated for approximately 48 h at 35±1° C. At the completion of incubation the wells of each plate were evaluated visually for the presence of fungal growth. […] For QC purposes C. krusei isolate ATCC 6258 (4.0×10^3 cfu/mL) was included in the VOR assay."}}, "data": [{"smiles": "OC(Cn1cnnn1)(c1ccc(F)cc1F)C(F)(F)c1ccc(-c2ccc(F)nc2)cn1", "note": "(stereo not drawn) [Compound 31, 2-(2,4-Difluorophenyl)-1,1-difluoro-1-(6′-fluoro-[3,3′-bipyridin]-6-yl)-3-(1H-tetrazol-1-yl)propan-2-ol]", "values": [{"measurement": "Septoria Rating (MIC)", "setting": "[1]", "value": "C (>1.5-4)"}, {"measurement": "IC50", "setting": "[2]", "value": 33, "unit": "µM"}, {"measurement": "MIC", "setting": "[3]", "value": 0.062, "unit": "µg/mL"}]}]}
